Data published in PMC12406204 (Journal of Medicinal Chemistry, 2025).

Legend:
CB2R = CB2R (Homo sapiens, UniProt P34972); assay: CB2R radioligand binding competition ([3H]CP55,940); parameters: expressed in transfected cells; host or cells: HEK-293T (HEK-CB2 cell line); conditions: for Ki: displacement of [3H]CP 55,940, membranes of HEK-293T cells, n = 3; for SI Ki CB1R/Ki CB2R: selectivity index, affinity ratio; for CB2R % at 1 μM: percentage displacement of specific [3H]CP 55,940 binding at 1 μM, n = 2
CB1R = CB1R (Homo sapiens, UniProt P21554); assay: CB1R radioligand binding competition ([3H]CP55,940); parameters: host or cells: CHO-CB1 C3 cell line; conditions: for Ki: displacement of [3H]CP 55,940, membranes of CHO-CB1 C3 cells, n = 3; for CB1R % at 1 μM: percentage displacement of specific [3H]CP 55,940 binding at 1 μM, n = 2
Sequence of CB1R (P21554 whole entry): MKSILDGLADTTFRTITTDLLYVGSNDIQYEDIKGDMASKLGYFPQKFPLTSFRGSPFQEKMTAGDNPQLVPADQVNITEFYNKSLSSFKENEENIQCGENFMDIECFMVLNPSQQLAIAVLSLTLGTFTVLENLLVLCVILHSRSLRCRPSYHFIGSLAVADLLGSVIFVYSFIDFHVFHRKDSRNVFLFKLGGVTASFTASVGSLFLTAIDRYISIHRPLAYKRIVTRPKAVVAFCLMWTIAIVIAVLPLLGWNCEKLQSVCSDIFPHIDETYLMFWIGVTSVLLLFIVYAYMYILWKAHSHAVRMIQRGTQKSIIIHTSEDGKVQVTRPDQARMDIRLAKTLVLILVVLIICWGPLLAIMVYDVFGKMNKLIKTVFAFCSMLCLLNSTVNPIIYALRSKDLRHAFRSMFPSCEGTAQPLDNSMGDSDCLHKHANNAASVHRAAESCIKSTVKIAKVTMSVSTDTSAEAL

Sequence of CB2R (P34972 whole entry): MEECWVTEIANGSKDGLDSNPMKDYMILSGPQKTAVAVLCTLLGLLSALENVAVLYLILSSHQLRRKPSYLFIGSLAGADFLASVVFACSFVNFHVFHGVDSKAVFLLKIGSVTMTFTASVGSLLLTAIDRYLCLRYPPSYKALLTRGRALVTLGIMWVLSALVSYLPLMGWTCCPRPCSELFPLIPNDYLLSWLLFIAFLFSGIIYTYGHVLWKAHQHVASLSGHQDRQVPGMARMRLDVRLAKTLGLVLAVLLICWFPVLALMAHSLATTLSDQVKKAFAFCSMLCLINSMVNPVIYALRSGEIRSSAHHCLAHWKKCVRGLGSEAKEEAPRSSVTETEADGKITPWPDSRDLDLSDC

SMILES	Ki (CB2R) [nM]	SI Ki CB1R/Ki CB2R (CB2R)	Ki (CB1R) [nM]	CB1R % at 1 μM (CB1R) [%]	CB2R % at 1 μM (CB2R) [%]
COC(=O)[C@@H]1CCCCN1C(=O)c1nn(CCCCCF)c2ccccc12 [16k]	10.6 ± 0.7	37	392 ± 5	–	–
COC(=O)[C@H]1CCCN1C(=O)c1nn(CCCCCF)c2ccccc12 [15l]	513 ± 3	>100	–	1	–
COC(=O)[C@H]1CCCCN1C(=O)c1cn(Cc2ccc(F)cc2)c2ccccc12 [16h]	109 ± 4	>100	–	35	–
COC(=O)[C@H]1CCCCN1C(=O)c1nn(CCCCCF)c2ccccc12 [16l]	127 ± 5	>100	–	5	–
CCCCCn1nc(C(=O)N2CCCC[C@H]2C(N)=O)c2ccccc21 [18i]	91.8 ± 4.9	>100	–	2	–
COC(=O)[C@H]1CCCCN1C(=O)c1cn(CCCCCF)c2ccccc12 [16d]	251 ± 7	>100	–	24	–
NC(=O)[C@@H]1CCCCN1C(=O)c1nn(CCCCCF)c2ccccc12 [18k]	151 ± 6	>100	–	3	–
COC(=O)[C@H]1CCCN1C(=O)c1cn(Cc2ccc(F)cc2)c2ccccc12 [15h]	599 ± 13	>100	–	10	–
NC(=O)[C@@H]1CCCN1C(=O)c1cn(CC2CCCCC2)c2ccccc12 [17e]	288 ± 7	>100	–	6	–
COC(=O)[C@@H]1CCCCN1C(=O)c1cn(Cc2ccc(F)cc2)c2ccccc12 [16g]	22.5 ± 1.1	4	90.3 ± 2.3	–	–
NC(=O)[C@@H]1CCCN1C(=O)c1nn(CC2CCCCC2)c2ccccc12 [17m]	–	–	–	1	27
NC(=O)[C@@H]1CCCN1C(=O)c1cn(CCCCCF)c2ccccc12 [17c]	–	–	–	1	15
COC(=O)[C@H]1CCCN1C(=O)c1nn(Cc2ccc(F)cc2)c2ccccc12 [15p]	157 ± 4	>100	–	5	–
NC(=O)[C@H]1CCCCN1C(=O)c1cn(CCCCCF)c2ccccc12 [18d]	169 ± 6	>100	–	15	–
NC(=O)[C@H]1CCCN1C(=O)c1cn(CC2CCCCC2)c2ccccc12 [17f]	411 ± 16	>100	–	3	–
COC(=O)[C@H]1CCCCN1C(=O)c1cn(CC2CCCCC2)c2ccccc12 [16f]	93.1 ± 3.3	>100	–	37	–
NC(=O)[C@H]1CCCN1C(=O)c1cn(CCCCCF)c2ccccc12 [17d]	–	–	–	5	16
CCCCCn1cc(C(=O)N2CCCC[C@H]2C(N)=O)c2ccccc21 [18a]	111 ± 6	>100	–	3	–
COc1ccc2c(c1)c(CCN1CCOCC1)c(C)n2C(=O)c1cccc(Cl)c1Cl [GW405833, reference compound]	5.8 ± 0.4	822	4770 ± 110	–	–
NC(=O)[C@H]1CCCCN1C(=O)c1nn(CC2CCCCC2)c2ccccc12 [18n]	112 ± 4	>100	–	26	–
COC(=O)[C@@H]1CCCN1C(=O)c1nn(Cc2ccc(F)cc2)c2ccccc12 [15o]	16.5 ± 1.1	3	46.2 ± 2.3	–	–
CCCCCn1nc(C(=O)N2CCC[C@@H]2C(=O)OC)c2ccccc21 [15j]	208 ± 5	>100	–	4	–
CCCCCn1nc(C(=O)N2CCCC[C@@H]2C(N)=O)c2ccccc21 [18j]	145 ± 6	>100	–	2	–
NC(=O)[C@@H]1CCCN1C(=O)c1nn(Cc2ccc(F)cc2)c2ccccc12 [17o]	628 ± 21	>100	–	4	–
COC(=O)[C@@H]1CCCCN1C(=O)c1nn(CC2CCCCC2)c2ccccc12 [16m]	5.2 ± 0.4	31	162 ± 3	–	–

SMILES	Ki (CB2R) [nM]	SI Ki CB1R/Ki CB2R (CB2R)	Ki (CB1R) [nM]	CB1R % at 1 μM (CB1R) [%]	CB2R % at 1 μM (CB2R) [%]
CCCCCn1nc(C(=O)N2CCC[C@H]2C(N)=O)c2ccccc21 [17i]	–	–	–	2	31
CCc1c(C(=O)NN2CCCCC2)nn(-c2ccc(Cl)cc2Cl)c1-c1ccc(Br)cc1 [Surinabant, reference compound]	400 ± 6	0.0075	3 ± 0.2	–	–
COC(=O)[C@H]1CCCCN1C(=O)c1nn(CC2CCCCC2)c2ccccc12 [16n]	164 ± 5	>100	–	3	–
NC(=O)[C@@H]1CCCN1C(=O)c1nn(CCCCCF)c2ccccc12 [17k]	–	–	–	2	17
COC(=O)[C@H]1CCCN1C(=O)c1nn(CC2CCCCC2)c2ccccc12 [15n]	99.3 ± 2.8	>100	–	2	–
CCCCCn1cc(C(=O)N2CCC[C@H]2C(=O)OC)c2ccccc21 [15a]	189 ± 10	0.6	121 ± 6	–	–
CCCCCn1cc(C(=O)N2CCCC[C@@H]2C(=O)OC)c2ccccc21 [16b]	273 ± 4	>100	–	18	–
CCCCCn1cc(C(=O)N2CCCC[C@H]2C(=O)OC)c2ccccc21 [16a]	114 ± 6	6	644 ± 13	–	–
CCCCCn1nc(C(=O)N2CCC[C@H]2C(=O)OC)c2ccccc21 [15i]	75.9 ± 2.2	4	337 ± 9	–	–
NC(=O)[C@@H]1CCCCN1C(=O)c1cn(CCCCCF)c2ccccc12 [18c]	132 ± 4	>100	–	7	–
CCCCCn1cc(C(=O)N2CCCC[C@@H]2C(N)=O)c2ccccc21 [18b]	136 ± 5	>100	–	10	–
COC(=O)[C@H]1CCCN1C(=O)c1cn(CC2CCCCC2)c2ccccc12 [15f]	463 ± 11	>100	–	32	–
COC(=O)[C@H]1CCCCN1C(=O)c1nn(Cc2ccc(F)cc2)c2ccccc12 [16p]	48.4 ± 1.8	>100	–	–	–
NC(=O)[C@@H]1CCCN1C(=O)c1cn(Cc2ccc(F)cc2)c2ccccc12 [17g]	–	–	–	3	20
NC(=O)[C@H]1CCCCN1C(=O)c1cn(Cc2ccc(F)cc2)c2ccccc12 [18h]	207 ± 9	>100	–	3	–
CCCCCn1nc(C(=O)N2CCC[C@@H]2C(N)=O)c2ccccc21 [17j]	–	–	–	3	28
NC(=O)[C@H]1CCCN1C(=O)c1nn(CC2CCCCC2)c2ccccc12 [17n]	–	–	–	2	28
NC(=O)[C@H]1CCCN1C(=O)c1nn(Cc2ccc(F)cc2)c2ccccc12 [17p]	–	–	–	4	12
NC(=O)[C@H]1CCCN1C(=O)c1cn(Cc2ccc(F)cc2)c2ccccc12 [17h]	–	–	–	4	7
COC(=O)[C@@H]1CCCN1C(=O)c1cn(CCCCCF)c2ccccc12 [15c]	71.7 ± 2	0.8	55.9 ± 2.7	–	–
COC(=O)[C@@H]1CCCN1C(=O)c1nn(CCCCCF)c2ccccc12 [15k]	41.9 ± 2.1	4	173 ± 5	–	–
NC(=O)[C@H]1CCCCN1C(=O)c1nn(CCCCCF)c2ccccc12 [18l]	143 ± 5	>100	–	3	–
COC(=O)[C@H]1CCCN1C(=O)c1cn(CCCCCF)c2ccccc12 [15d]	–	–	–	3	26
NC(=O)[C@@H]1CCCCN1C(=O)c1nn(CC2CCCCC2)c2ccccc12 [18m]	59.5 ± 2.8	>100	–	21	–
CCCCCn1cc(C(=O)N2CCC[C@@H]2C(N)=O)c2ccccc21 [17b]	–	–	–	3	17
